Data on 5 compounds can be found in patent US10316077B2, “Cell-penetrating ATF5 polypeptides and uses thereof” (Sapience Therapeutics, Inc., priority 2017, dated 2019).

In series [1] the test system is U87 cells. Put plainly: Apo-ONE caspase 3/7 activation assay in U87 glioblastoma cells. The series is classed as cell-based. As for the experimental part: Activation of caspase enzymes occurs in the early stages of apoptosis. In this Example, we investigated the effect on caspase activation of ST-3 in combination with the Bcl-2 inhibitor ABT-263 (Navitoclax). U87 cells were prepared as described in Example 2 for T98G cells. Lyophilized ST-3 was freshly reconstituted in Tris Buffer at a concentration of 5 mg/mL, and adjusted to a working concentration of 200 μM. ST-3 was added to cells in 100 μL Tris Buffer at a final concentration range of 0-20 μM. […] Plates were incubated at ambient temperature in the dark for 1.5-2 hours. Fluorescence was recorded by Eppendorf PlateReader AF2200 at Ex. 485 nm/Em. 527 nm.

Series [2] concerns HL60 promyelocytic leukemia (PML) cells. Put plainly: Annexin V/PI cell viability assay in HL60 cells. It counts as cell-based, human. The conditions noted are these: for EC50: HL60, Annexin V/PI viability, 48 hours, read-out: EC50 (μM) of ATF-5-Derived Polypeptides in Cancer Cells, HL60. As for the experimental part:
(§1) ST-3, reconstituted at a concentration of 10 mg/mL in 20 mM His, pH 7.5, was added to each well at a volume of 50 μL to a final concentration range of 0-80 μM. Cells were incubated with ST-3 for 48 hours at 37° C. Cell viability was quantified by flow cytometry using an Annexin V FITC apoptosis detection kit from Abcam. Briefly, cells were washed with PBS and resuspended in 1× assay buffer containing Annexin V FITC and propidium iodide (PI). Annexin V detects apoptotic cells, and PI stains dead cells. After staining, apoptotic cells show green fluorescence, dead cells show red and green fluorescence, and live cells show little or no fluorescence. Cells were selected for analysis based on forward scatter (FSC) vs. side scatter (SSC), and analyzed by BD Accuri C6 Plus flow cytometer to detect Annexin V-FITC binding (Ex=488 nm; Em=530 nm) using FITC signal detector and PI staining by the phycoerythrin emission signal detector. Percentage of Annexin V^low and PI^low were quantified and presented as % Viability.

The subject of series [3] is U251 GBM cells. Put plainly: Annexin V/PI cell viability assay in U251 cells. The conditions noted are these: 48-hour incubation, read-out: EC50 (μM) of ATF-5-Derived Polypeptides in Cancer Cells, U251. It counts as cell-based. On the procedure: as §1
(§2) Alternatively, adherent U251 or U87 cells were set at a density of 3.5×10^3 cells/well in 150 μL of media on day −1. On day 0, media was removed and replenished with 150 μL of fresh media, and cells were treated with ST-3 as described. […] Cell viability was determined as described above for suspension cells.

In series [4] the test system is T98G GBM cells. Put plainly: CellTiter-Blue cell viability assay in T98G cells. The conditions noted are these: read-out: EC50 (μM) of ATF-5-Derived Polypeptides in Cancer Cells, T98G, 72 hours.
Experimental: (§3) T98G cells were set at a density of 2×10^3/well in 200 μL of RPMI+1.5% fetal bovine serum (FBS) in black-walled Nunc™ MicroWell™ 96-Well Optical-Bottom Plates with Polymer Base.
(§4) On day −1, adherent T98G cells were washed of complete media (RPMI+10% FBS) with 6 mL Dulbecco's Phosphate Buffered Saline (DPBS), and dissociated from T25 Nunclon™ Delta flask with 2 mL trypsin at room temperature. Trypsin was quenched with 6 mL complete media, and cells were resuspended in fresh complete media at a concentration of 1×10^6 cells/mL. Cells were then adjusted to a concentration of 1×10^4 cells/mL in RPMI+1.5% FBS, and 200 μL of culture was added to each well (B2 to G11) of a Nunc™ 96-well Flat Bottom Black Polystyrol Clear Bottom plate to a final cell concentration of 2×10^3 cells/well. Cells were set in an incubator at 37° C. and 5% CO2 with humidity for 24 hours.
(§5) On day 0, 100 μL of media was removed from each well.
(§6) On day 3, media was removed from wells, and wells were washed with 100 μL DPBS. Cells were resuspended in 100 μL RPMI+10% FBS. CellTiter-Blue® Cell Viability Assay (Promega Corp., Madison, Wis.) was performed by adding 20 μL of CellTiter-Blue® reagent to each well. Plates were returned to the incubator at 37° C. and 5% CO2 with humidity for 1.5-2 hours. CellTiter-Blue® assay results were read by Eppendorf PlateReader AF2200 at Ex. 535 nm/Em. 595 nm according to manufacturer's instructions. Data is presented as % Viability. Cell viability was calculated as (Sample value/Buffer control value)×100. EC50 values were calculated using GraphPad Prism v.7 XML.
Series [5] concerns U87 cells. Put plainly: Annexin V/PI cell viability assay in U87 cells. It counts as cell-based. The conditions noted are these: 48-hour incubation, read-out: EC50 (μM) of ATF-5-Derived Polypeptides in Cancer Cells, U87. On the procedure: as §1, §2
Series [6] concerns T98G GBM cells.
Experimental: as §3, §4, §5, §6
For series [7], the system named is neoplastic cells. As to conditions: systemically administered; cited from earlier work.

Where “and” joins values, the source holds several entries; their conditions need not be identical. Identical values can stand only once. Ends that are not written are not given here.

Take `CC1(C)CCC(c2ccc(Cl)cc2)=C(CN2CCN(c3ccc(C(=O)NS(=O)(=O)c4ccc(N[C@H](CCN5CCOCC5)CSc5ccccc5)c(S(=O)(=O)C(F)(F)F)c4)cc3)CC2)C1` [ABT-263, ABT-263 (Navitoclax)]: in series [1] (ST-3 0 μM, ABT-263 0.5 μM, % of positive control), the “% Caspase Activation, ABT-263 alone” value is 15.5% and 15.32%.

On to `CN[C@@H]1C[C@H]2O[C@@](C)([C@@H]1OC)n1c3ccccc3c3c4c(c5c6ccccc6n2c5c31)C(=O)NC4` [Positive Control, staurosporine], for which the “% Caspase Activation, positive control” value in series [1] (staurosporine 10 μM, reference set to 100) is 100%.

As a reminder, the EC50 is the concentration needed to bring the measured effect to its halfway point. As for “RQIKIWFQNRRMKWKKLEGECQGLEARNRELKERAESV [ST-3]”, the 50% effective concentration (EC50) is 16 µM in series [2], 42 µM in series [3], 69 µM in series [4] and 45 µM in series [5]. For the same compound, the “cytotoxic activity compared to ST-2” value in series [6] is recorded as “unexpectedly superior cytotoxic activity over ST-2”.

Regarding “RQIKIWFQNRRMKWKKLEQRAEELARENEELLEKEAEELEQENAELEGECQGLEARNRELRERAESV [ST-2]”, the concentration for a half-maximal effect (EC50) in series [2], in series [3], in series [4] and in series [5] was above 200 µM each time. For the same compound, the “blood-brain barrier crossing, cell entry and apoptosis of neoplastic cells” value in series [7] was “can cross the blood-brain barrier, enter cells, and selectively trigger the apoptotic death of neoplastic cells”.

Take “YGRKKRRQRRLEGECQGLEARNRELKERAESV [ATF5 Polypeptide with Tat CPP]”: the “cytotoxic activity” value in series [2] (HL-60 cell viability assay) is “has cytotoxic activity”.
